Source: PubChem BioAssay AID179 (DTP/NCI, 2004)
Where “and” joins values, the source holds several entries; their conditions need not be identical. Equal values may be shown once. Calls of active or inactive are those of the source.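 How the source made its calls: active means compounds giving half or more protection of infected cells from virus-caused growth loss, again on retest; inactive means the rest.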 Where a SMILES comes first, the peptide text is derived from it.

Test system: CEM cells HIV-1 protection, formazan growth assay
Assay: NCI AIDS Antiviral Assay
Details: for IC50: measured here: growth of uninfected CEM cells
Outline: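 Human CEM cells, uninfected and HIV-1-infected, received five drug concentrations, and growth was read by soluble formazan assay. Compounds giving at least 50% protection were retested; reproducible 100% protection defined confirmed active.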

SMILES | EC50 | IC50 [µM] | outcome
CN(C)C(=O)c1cccc(COc2ccc(N3C(N)=NC(N)=NC3(C)C)cc2Cl)c1 | > 468 µM | 0.148 | –
CCN(CC)CCOc1cccc(NC(=O)CN(CC)CC)c1 | > 200 µM | 81.3 | –
CN(c1cn(C2CC[C@@H](CO)O2)c(=O)[nH]c1=O)C1CCCCC1 (some centres undefined) | > 200 µM | > 200 | –
CC1(C)OC(=O)C2(O1)C(=O)C1CCCCC12 (centres undefined) | > 200 µM | > 200 | –
COc1ccc(C(c2c(O)c3ccccc3oc2=O)N2CCOCC2)cc1 (centres undefined) | > 200 µM | > 100 | –
CCCc1cc(=O)oc2c3c(cc(OC(C)CC)c12)O[C@H](C)[C@@H](C)[C@@H]3O (some centres undefined) | 3.63 µM | 37.2 | –
CCSSC1(C)C(=O)N2CCCC2C(=O)N1C (centres undefined) | > 200 µM | 11.5 | –
CCOC(=O)CC1C(O)C(=O)N(C)C1c1ccccc1 (centres undefined) | – | – | inactive
O=Cc1ccccc1OCCCC[P+](c1ccccc1)(c1ccccc1)c1ccccc1 | > 200 µM | 2.82 | –
O=C(NC1C(=O)NNC1c1ccccc1Cl)c1ccccc1 (centres undefined) | > 158 µM | > 158 | –
O=c1ccc2cc3ccoc3c(OCCCCCCBr)c2o1 | > 75.9 µM | 30.9 | –
CCCCCCOC(=O)c1[nH]c(=O)[nH]c(=O)c1N | > 200 µM | > 200 | –
O[C@@H]1CO[C@H]2[C@@H]1OC[C@@H]2O | > 200 µM | > 200 | –
Cn1cc(NC(=O)Nc2cc(C(=O)Nc3cc(C(=O)Nc4cc(S(=O)(=O)O)c5cc(S(=O)(=O)O)cc(S(=O)(=O)O)c5c4)n(C)c3)n(C)c2)cc1C(=O)Nc1cc(C(=O)Nc2cc(S(=O)(=O)O)c3cc(S(=O)(=O)O)cc(S(=O)(=O)O)c3c2)n(C)c1 | 4.68 µM | 224 | –
COc1cc(CC(=O)O)c(C(=O)c2cccc([N+](=O)[O-])c2)cc1OC | > 200 µM | 37.2 | –
c1ccc2c(c1)Nc1nsnc1N2 | > 27.5 µM | 7.08 | –
NC(CCOCCP(=O)(O)CCC1C=CC=CC1)C(=O)O (centres undefined) | > 200 µM | > 200 | –
C[N+]1(Cc2ccco2)CCCCC1 | > 813 µM | > 813 | –
c1ncn(C23C4C5C6C4C2C6C53)n1 (centres undefined) | > 200 µM | > 200 | –
CP(=O)(CCSc1ccccc1)c1ccccc1 (centres undefined) | > 661 µM | > 661 | –
Cc1ccc(NC(=O)/C(CC(=O)c2sc(Nc3ccccc3Cl)nc2C)=N\Nc2ccc([N+](=O)[O-])cc2[N+](=O)[O-])c(C)c1 | > 200 µM | 97.7 | –
Clc1ccc2sc(-n3ccc4ccccc43)nc2c1 | > 200 µM | 170 | –

SMILES | EC50 | IC50 [µM] | outcome
CC(=O)Nc1ccc(/C=c2\sc3nnc(/C=C/c4ccccc4)n3c2=O)cc1 | > 93.3 µM | > 93.3 | –
Cc1cc(N(CCOS(C)(=O)=O)CCOS(C)(=O)=O)ccc1C=Nc1ccc(-c2nc(Cc3ccccc3)sc2C)cc1 | > 200 µM | 0.427 | –
O=[N+]([O-])c1ccc(N=Cc2ccc(O)cc2)cc1 | > 200 µM | 10 | –
CC1OC(OC2C(O[C@H]3CC[C@@]4(C)C(=CC[C@H]5[C@@H]6C[C@@H]7O[C@]8(CC[C@H](C)CN8)[C@@H](C)[C@@H]7[C@@]6(C)CC[C@@H]54)C3)OC(CO)C(O)C2OC2OC(CO)C(O)C(O)C2O)C(O)C(O)C1O (some centres undefined) | – | – | inactive
FC(F)(Sc1ncccn1)c1nc2ccccc2o1 | 19.5 µM | 102 | –
CCCCOC(=O)c1c2nc3c(C(=O)OCCCC)ccc(C)c3oc-2c(C)c(=O)c1NC(C)=O | > 151 µM | 24.5 | –
O=S(=O)(O)ON=C1c2ccccc2-c2ccccc21 | > 200 µM | 195 | –
c1ccc2nc([Se][Se]c3ccc4ccccc4n3)ccc2c1 | > 9.12 µM | 4.17 | –
CCOc1csc([C@H]2CCC3[C@@H]4CC=C5C[C@@H](OC(C)=O)CC[C@]5(C)C4CC[C@@]32C)n1 (some centres undefined) | > 56.2 µM | > 56.2 | –
Nc1ccn(CCO)c(=O)n1 | > 1620 µM | > 1620 | –
Nc1nc(NCCO)c(N=O)c(=O)[nH]1 | > 182 µM | > 182 | –
Cc1nc2ccccc2c(=O)n1/N=C(\N=Nc1cc(Cl)ccc1Cl)c1ccc(N(C)C)cc1 | – | – | inactive
COc1cc(C)cc2c(-c3c(O)cc(O)c4c3C[C@H](C)N[C@H]4C)cc(-c3cc(-c4c(O)cc(O)c5c4C[C@H](C)N[C@H]5C)c4cc(C)cc(OC)c4c3O)c(O)c12 | 14.1 µM | 95.5 | –
Cc1cn(C2CC(O)C(CN(O)CCC3CC(n4cc(C)c(=O)[nH]c4=O)OC3CO)O2)c(=O)[nH]c1=O (centres undefined) | > 200 µM | > 200 | –
N#C/C(=C\c1ccccc1)c1cccc(I)c1 | > 200 µM | 55 | –
CC1(C)CC(=O)C2=C(C1)OC1=C(CC(C)(C)CC1=O)C2c1ccccc1Cl (centres undefined) | > 200 µM | 162 | –
O=c1[nH]c(=O)n(COCCOCc2ccccc2)cc1Nc1ccccc1 | > 200 µM | 56.2 | –
CC(=O)OC(C)(C)c1ccc2c(c1)C(=O)C[C@@H]1[C@](C)(C#N)CCC[C@]21C | > 200 µM | 126 | –
C=C1CN(S(=O)(=O)c2ccc(C)cc2)CCCN(Cc2cccs2)CCCN(S(=O)(=O)c2ccc(C)cc2)C1 | > 200 µM | 70.8 | –
NC(=S)N/N=C(/C(=O)Nc1nc2ccc([N+](=O)[O-])cc2s1)C1C(=O)NC(=S)NC1=O | > 15.5 µM | > 15.5 | –
COC(=O)C(=O)/C=C(/O)c1c(C)[nH]c2ccccc12 | > 200 µM | > 200 | –
COc1cccc(C2=NC(C(C)C)CO2)c1 (centres undefined) | > 229 µM | > 229 | –

SMILES | EC50 | IC50 [µM] | outcome
CN1C(=O)[C@@H]2N(N(C)C1=O)[C@@]1(Br)C(=O)NC(=O)[C@@]21Br | 102 µM | 148 | –
CCOC(=O)C1(c2ccccc2)CCN(CC(=O)c2ccccc2)CC1 | > 102 µM | 56.2 | –
NC(CCc1ncc(-c2ccccc2)s1)C(=O)O (centres undefined) | – | – | inactive
N#CC1(C#N)C=CC(=C2OCC3CCCN23)C=C1 (centres undefined) | – | – | inactive
COC(=O)c1ccc(CCc2cc(O)c(Br)cc2O)cc1 | > 200 µM | 10 | –
CNC(=O)CNC(=O)C(NC(=O)CNC(=O)C1CCCN1C(=O)C(C)NC(=O)C(NC(C)=O)C(C)C)C(C)C (centres undefined) (Ac-VAPGVG-NHMe; configuration not given here) | > 200 µM | > 200 | –
COc1ccc2oc(=O)c(CC=C(C)C)c(O)c2c1C | > 200 µM | > 100 | –
COc1nnc(C)c2[nH]c(=S)[nH]c12 | > 457 µM | > 457 | –
CC(=O)Oc1cccc2c1C(=O)C(Br)(Br)CCC2 | – | – | inactive
O=c1[nH]nnc2c1cnn2C1CCCO1 (centres undefined) | – | – | inactive
CC(C)=CCC/C(C)=C\C=N/O | > 155 µM | 8.13 | –
COC1/C=C/OC2(C)Oc3c(C)c(O)c4c(O)c(cc(OCC(=O)N(C)CCCCC(=O)O)c4c3C2=O)NC(=O)/C(C)=C/C=C/C(C)C(O)C(C)C(O)C(C)C(OC(C)=O)C1C (centres undefined) | > 200 µM | 19.1 | –
[N-]=[N+]=NC[C@H]1OCO[C@H](CN=[N+]=[N-])[C@@H](OCCOCCCl)[C@@H]1OCCOCCCl | > 200 µM | 148 | –
Cc1ccccc1C1CC(c2ccccc2)=NO1 (centres undefined) | > 57.5 µM | > 57.5 | –
C=C(C)COC(=O)C1C2CC(C3OC23)C1C(=O)OCC(=C)C (centres undefined) | > 200 µM | 112 | –
C[N+]12CCCc3cccc(c31)CCC2 | > 794 µM | 182 | –
CC1C(=NO)C(C)C(c2ccccc2)N(N=O)C1c1ccccc1 (centres undefined) | > 200 µM | > 200 | –
Nc1ccccc1-c1noc(=O)[nH]1 | > 200 µM | > 200 | –
CCOC(=O)c1c[nH]c(C(=O)OCC)c1-c1cccn1-c1ccccc1 | > 200 µM | 24.5 | –
CC(=O)OCC1OC(n2c3c(c(-c4ccco4)c(C#N)c2=S)CCCC3)C(OC(C)=O)C(OC(C)=O)C1OC(C)=O (centres undefined) | > 200 µM | 155 | –
COc1cc(C2C3=C(COC3=O)Oc3cc4c(cc32)OCO4)cc(OC)c1O (centres undefined) | > 2 µM | 0.0562 | –
CC(=O)O[C@]12CCCCCC1C1(O)C(O)CCCCC12 (some centres undefined) | > 200 µM | > 200 | –

SMILES | EC50 | IC50 [µM] | outcome
CC(=O)Nc1cc(S(=O)(=O)O)cc2cc(S(=O)(=O)O)c(N=Nc3ccc(C(=O)Nc4ccc(S(=O)(=O)O)cc4)cc3)c(O)c12 | – | – | inactive
CCC(Oc1c2ccoc2c(OC)c2oc(=O)cc(O)c12)C(=O)O (centres undefined) | > 269 µM | > 269 | –
CCCc1cc(=O)oc2c3c(c4c(c12)OC(C)(C)CC4)O[C@H](C)C(C)[C@@H]3O (some centres undefined) | > 200 µM | 162 | –
COc1ccc(-c2sc(/N=C/c3ccc(-c4ccccc4)cc3)c(C#N)c2C)cc1OC | > 200 µM | 30.2 | –
N#CC(C#N)=CNC(N)=S | > 200 µM | > 200 | –
CC1=NN(c2nc(N)nc(CSc3cc(Cl)c(C)cc3S(N)(=O)=O)n2)C(C)(C)C1 | – | – | inactive
CC(=O)Nc1ccc(Sc2nnc(NC(C)=O)s2)cc1 | > 32.4 µM | > 32.4 | –
COc1ccc2cc(C(=O)Nc3ccc(O)c(C(=O)O)c3)ccc2c1OC | > 200 µM | > 200 | –
O=C1c2ccccc2C(=O)c2c(/C=C\N3CCCCC3)ccnc21 | > 8.51 µM | > 8.51 | –
CN(C)Cc1cc(/C=C/C(=O)c2ccc(Br)cc2)cc(CN(C)C)c1O | > 200 µM | 10.5 | –
CC(=O)OC1=NC(C)c2c1cc(OC(C)=O)[nH]c2=O (centres undefined) | > 14.5 µM | > 14.5 | –
C=C(C)[C@H]1Cc2c(ccc3c2O[C@@H]2COc4cc(OC)c(OC)cc4[C@@H]2C3=O)O1 | > 2 µM | 0.0479 | –
N=c1ccn2c(n1)OC1C(O)C(CO)OC12 (centres undefined) | 37.2 µM and > 2 µM | – | –
CC(=O)C1CCN(c2ccccc2)C1 (centres undefined) | – | – | inactive
NCC1Nc2ccccc2[C@@H](O)C1O (some centres undefined) | > 933 µM | > 933 | –
CC(=O)OCC1OC(n2c(-c3ccc(Cl)cc3)ccc(C#N)c2=S)C(OC(C)=O)C(OC(C)=O)C1OC(C)=O (centres undefined) | > 200 µM | > 200 | –
FC(F)(F)c1ccc2nc(Nc3ccc(Cl)c(Cl)c3)c(-c3ccccc3)nc2c1 | > 12 µM | 8.13 | –
CC[C@H]1C[C@@H](O)[C@@H]2[C@H](O)[C@H](O)CN2C1 | > 200 µM | > 200 | –
CCOC(=O)c1ncn2c1[nH]c(=S)c1ccccc12 | > 26.3 µM | > 26.3 | –
